Experimental data taken from US10940188B2, “Compounds and methods for treatment and prevention of Flavivirus infection” (priority 2016, dated 2021).
Where “and” joins values, the source holds several entries; their conditions need not be identical. Equal values may be shown once. Read-outs that look alike come from different tables or passages of the source.

How the values were obtained:
[1] = test system: ZIKV-induced caspase 3/7 activity in SNB-19 cells; assay: Caspase 3/7 activity assay, ZIKV-infected SNB-19 cells; format: cell-based
Method in brief: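 Human NPCs, SNB-19 cells or astrocytes seeded 16 h, compound added 30 min before ZIKV, then 6 h infection at 37 °C. Caspase-Glo 3/7 luminescence after 30 min at room temperature, normalized to uninfected cells (0%) and ZIKV-infected cells (100%).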

[2] = test system: ZIKV-induced cell death in SNB-19 cells; assay: ATP cell viability assay for ZIKV-induced cell death, SNB-19 cells; format: cell-based, human
Method in brief: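 The extent of cell death caused by ZIKV infection was determined from ATP levels. Cells grew in assay plates for 16 hours at 37° C. with 5% CO2, were then given ZIKV solution and kept under the same conditions for 72 hours. ATPlite reagent was applied for 15 minutes and luminescence was read on a ViewLux plate reader. Cell-free wells defined 100% killing and uninfected cell wells defined full viability.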

[3] = Homo sapiens, ZIKV-infected SNB-19 cells, read-out: Caspase 3 (IC50, uM) SNB-19
[4] = Homo sapiens, ZIKV-infected SNB-19 cells, read-out: Caspase 3 (efficacy, %) SNB-19
[5] = ZIKV-infected SNB-19 cells, read-out: Caspase 3 (IC50, uM) SNB-19
[6] = Homo sapiens, ZIKV-infected SNB-19 cells, read-out: Cell viability (IC50, uM) SNB-19
[7] = Homo sapiens, SNB-19, following ZIKV infection, read-out: IC50 (μM) for improving cell viability, SNB-19
[8] = ZIKV-infected SNB-19 cells, read-out: Cell viability (IC50, uM) SNB-19

Compound | IC50 [1, 3] [µM] | Emax [1, 4] [%] | Cell viability (efficacy, %) SNB-19 ([2]; ZIKV-infected SNB-19 cells) [%] | also measured
Cc1ccc(O)c(-n2nc3ccccc3n2)c1 [2-(2H-Benzotriazol-2-yl)-4-methylphenol] | 8.69 | 80.1 | 0.0 | –
Nc1nc2ccc([N+](=O)[O-])cc2s1 [2-Amino-6-nitrobenzothiazole] | 53.1 | 46.1 | 0.0 | –
CCOCCOC(=O)C=Cc1ccc(OC)cc1 [2-Ethoxylethyl-p-methoxycinnamate] | 27.5 | 53 | 0.0 | –
O=C(O)c1cc([N+](=O)[O-])ccc1NCCCc1ccccc1 [5-Nitro-2-(3-phenylpropylamino)benzoic acid] | 13 | 82.9 | 0.0 | –
O=C1NC(=O)/C(=C/c2ccc(-c3ccc(F)cc3O)o2)S1 [AS-252424] | – | – | 0.0 | Caspase 3 (efficacy, %) SNB-19 ([1]; ZIKV-infected SNB-19 cells): 38.0%; IC50 [1, 5]: 2.18 µM
O=C1c2ccccc2C(=O)c2c1ccc(O)c2O [Alizarin] | 21.8 | 40.9 | 0.0 | –
COc1ccc(-c2cc(=S)ss2)cc1 [Anethole trithione] | 15.5 | 85.5 | 0.0 | –
N#CC1(c2ccc(NC(=O)c3cccnc3NCc3ccncc3)cc2)CCCC1 [Apatinib] | 24.5 | 61.2 | 0.0 | –
O=C(Nc1ccc(C(=O)O)c(O)c1)c1ccccc1 [Benzoylpas] | 6.9 | 92.8 | 0.0 | –
O=C(OCc1ccccc1)c1ccc(O)cc1 [Benzylparaben] | 19.5 | 91.8 | 0.0 | –
O=C1NC(=O)C(=Cc2ccc(-c3ccc(F)cc3)o2)S1 [CAY10505] | – | – | 0.0 | Caspase 3 (efficacy, %) SNB-19 ([1]; ZIKV-infected SNB-19 cells): 91.2%; IC50 [1, 5]: 17.3 µM
CN(C)CCCSc1ccccc1NC(=O)/C=C/c1ccccc1 [Cinanserin] | 12.3 | 92 | 56.9 | IC50 [2, 6]: 19.5 µM
CC(=O)Oc1cccc2c1C(=O)c1c(OC(C)=O)cc(C(=O)O)cc1C2=O [Diacerein] | 17.3 | 63.2 | 0.0 | –
O=C(Oc1ccccc1)c1cccc(C(=O)Oc2ccccc2)c1 [Diphenyl isophthalate] | 4.73 | 92.8 | 0.0 | –
Cc1cc(O)c2c(c1)C(=O)c1cc(O)cc(O)c1C2=O [Emodin] | 4.35 | 83.3 | 0.0 | –
C[C@H](NC(=O)C(=O)Nc1ccccc1C(C)(C)C)C(=O)N[C@@H](CC(=O)O)C(=O)COc1c(F)c(F)cc(F)c1F [Emricasan] | 0.62 | 97.6 | 194 | IC50 ([1]; Homo sapiens, SNB-19 cells, three ZIKV strains MR766, FSS13025, PRVABC59, read-out: IC50 in the caspase activity assay): 0.13 to 0.9 µM; IC50 [2, 7]: 0.87 µM; IC50 ([2]; Homo sapiens, SNB-19 cells, three ZIKV strains MR766, FSS13025, PRVABC59, read-out: IC50 in the cell viability assay): 0.13 to 0.9 µM; IC50 [2, 6]: 0.87 µM
O=C(O)c1ccccc1NCCc1ccccc1 [Enfenamic acid] | – | 49.5 | 0.0 | –
O=S(=O)(O)c1ccc2[nH]c(-c3ccccc3)nc2c1 [Ensulizole] | – | – | 0.0 | IC50 ([1]; Homo sapiens, SNB-19, read-out: Caspase 3 (IC50, uM) SNB-19): 1.84 µM; Emax ([1]; Homo sapiens, SNB-19, read-out: Caspase 3 (efficacy, %) SNB-19): 73.3%

Compound | IC50 [1, 3] [µM] | Emax [1, 4] [%] | Cell viability (efficacy, %) SNB-19 ([2]; ZIKV-infected SNB-19 cells) [%] | also measured
c1ccc(CCNc2nc(-c3ccccc3)cs2)cc1 [Fanetizole] | 17.3 | 78.1 | 0.0 | –
O=C(O)CCC(=O)c1ccc(-c2ccccc2)cc1 [Fenbufen] | 24.5 | 76.3 | 0.0 | –
CN1CC(=O)NC1=NC(=O)Nc1cccc(Cl)c1 [Fenobam] | – | – | 60.5 | Caspase 3 (efficacy, %) SNB-19 ([1]; ZIKV-infected SNB-19 cells): 110%; IC50 [1, 5]: 7.31 µM; IC50 [2, 8]: 1.73 µM
O=C(O)c1ccccc1Nc1cccc(C(F)(F)F)c1 [Flufenamic acid] | 10.9 | 61.5 | 0.0 | –
C/C1=C2/[N-][C@H]([C@H](CC(N)=O)[C@@]2(C)CCC(=O)NC[C@@H](C)OP(=O)([O-])O[C@H]2[C@@H](O)[C@@H](n3cnc4cc(C)c(C)cc43)O[C@@H]2CO)[C@]2(C)N=C(/C(C)=C3N=C(/C=C4N=C1[C@@H](CCC(N)=O)C\4(C)C)[C@@H](CCC(N)=O)[C@]\3(C)CC(N)=O)[C@@H](CCC(N)=O)[C@]2(C)CC(N)=O.[Co+3].[OH-] [Hydroxocobalamin] | – | – | 0.0 | Caspase 3 (efficacy, %) SNB-19 ([1]; ZIKV-infected SNB-19 cells): 85.7%; IC50 [1, 5]: 1.46 µM
CCC(C(=O)O)c1ccc(N2Cc3ccccc3C2=O)cc1 (centres unmarked) [Indobufen] | 7.74 | 85.8 | 0.0 | –
O=C(c1ccccc1)c1ccc2n1CCC2C(=O)O (centres unmarked) [Ketorolac tromethamine] | 17.3 | 84.5 | 0.0 | –
Cc1cccc(C#Cc2ccccc2)n1 [MPEP, 2-Methyl-6-(phenylethynyl)pyridine] | 5.18 | 98.6 | 0.0 | –
O=C(Nc1ccc([N+](=O)[O-])cc1Cl)c1cc(Cl)ccc1O [Niclosamide] | 2.06 | 93.9 | 97.3 | IC50 [2, 7]: 1.95 µM; IC50 [2, 6]: 1.95 µM
CC(=O)Nc1ccc([C@H](C)C(=O)Nc2ncc(C(C)C)s2)cc1 [PHA-690509] | – | – | 165 | Caspase 3 (efficacy, %) SNB-19 ([1]; ZIKV-infected SNB-19 cells): 74.6%; IC50 [1, 5]: 9.2 µM; IC50 [2, 8]: 10.9 µM; IC50 ([2]; following ZIKV infection, read-out: IC50 (μM) for improving cell viability, SNB-19): 10.1 µM
CN1CCN(c2cc3c(nn2)Oc2ccccc2N3C)CC1 [Pipofezine] | 15.1 | 31.5 | 0.0 | –
Cc1cccc(/C=C/c2ccccc2)n1 [SIB 1893] | – | – | 0.0 | Caspase 3 (efficacy, %) SNB-19 ([1]; ZIKV-infected SNB-19 cells): 105%; IC50 [1, 5]: 15.5 µM
CC(C(=O)O)c1ccc(C(=O)c2cccs2)cc1 (centres unmarked) [Suprofen] | 17.3 | 65.6 | 0.0 | –
c1ccc2[nH]c(-c3cscn3)nc2c1 [Thiabendazole] | 14.6 | 89.4 | 0.0 | –
CC(C(=O)O)c1ccc(C(=O)c2ccccc2)s1 (centres unmarked) [Tiaprofenic acid] | 10.3 | 96.2 | 0.0 | –
COc1cccc(-c2ccc(NC(=O)C3=C(C(=O)O)CCC3)c(F)c2)c1 [Vidofludimus] | 3.66 | 101 | 0.0 | –
Flurbiprofen axetil | – | – | 0.0 | Caspase 3 (efficacy, %) SNB-19 ([1]; ZIKV-infected SNB-19 cells): 45.7%; IC50 [1, 5]: 19.5 µM
Vitamin B12 | – | – | – | IC50 [1, 5]: 11.6 µM and 13.4 µM; IC50 [2, 8]: 0.12 µM
